In US7820642B2, “Nandrolone 17β-carbonates” (The United States of America as represented by the …, priority 2005, dated 2010):

How the values were obtained:
[1] = tested on: castrate Sprague-Dawley male rats; assay: Androgenic activity, Hershberger test (ventral prostate weight); format: in vivo, rat; conditions: for Biological activity Potency Ratio: oral in 10% ethanol/sesame oil, methyltestosterone standard = 1.00, FIG. 11
Experimental: The androgenic activity was tested as follows (see, Hershberger et al., Proc. Soc. Exptl. Biol. Med., 83: 175-180 (1953)). Immature (approximately 21 day old) male rats of the Sprague-Dawley strain were orchidectomized under METOFANE® anesthesia and randomly assigned to groups of ten animals for each dose level of test material and vehicle controls. Animals were maintained under standard conditions of housing and had free access to food and water. Illumination was controlled for 14-hour periods of light and 10 hours of darkness. Test compounds were dissolved in 10% ethanol/sesame oil and administered by gavage (oral) or subcutaneous injection daily for seven consecutive days starting on the day of surgery. Animals were sacrificed 24 hours after the last dose and the ventral prostate and seminal vesicles excised, cleaned of fat and connective tissue, blotted on moist filter paper and weighed to the nearest 0.1 mg. Ventral prostate weight was used as the endpoint because ventral prostate is the more sensitive organ to androgenic stimulation.
Statistical analysis was performed by conventional methods using a PROPHET data management system operating on SUN Microsystems OS 4.1.1 (see e.g., Bliss, Cl (1952) The Statistics of Bioassay, New York, Academic Press; Hollister, C (1988), Nucleic Acids Research, 16:1873-1875.
Each data point represents the mean (n=10) and standard error of the mean (SEM) prostate weight for each dose level. The potency ratio and 95% confidence index are set forth below.

[2] = tested on: castrate Sprague-Dawley male rats; assay: Duration of androgenic activity after a single subcutaneous injection (ventral prostate weight, AUC); format: in vivo, rat; conditions: for AUC of ventral prostate weight (duration of androgenic activity), standards: historical data, 1.2 mg single subcutaneous injection, testosterone undecanoate in aqueous suspension, testosterone enanthate in sesame oil; for AUC of ventral prostate weight (duration of androgenic activity): 14 weeks
Experimental: Duration of androgenic activity was determined as follows. Immature (22 days of age) male rats of the Sprague-Dawley CD strain were orchidectomized under METOFANE anesthesia and randomly assigned to groups of forty or more animals. Animals were maintained under standard conditions of housing and had free access to food and water. Illumination was controlled for 14-hour periods of light and 10 hours of darkness. Animals received a single subcutaneous injection of 0.6 mg of test material in aqueous suspending vehicle (ASV) and/or an oily vehicle (10% ethanol/sesame oil, sesame oil containing 5 mg/ml chlorobutanol as a preservative or ethyl oleate) on the day of surgery. Controls received vehicle alone. Testosterone enanthate in sesame oil was used as a standard. In cases where the test material was not solid at room temperature, i.e., a wax or oil, 10% ethanol/sesame oil or ethyl oleate was used as a vehicle. Five rats from each group were sacrificed at weekly or biweekly intervals and seminal vesicle and ventral prostate glands were excised, cleaned of adherent fat and connective tissue and weighed to the nearest 0.1 mg. Ventral prostate weight was used as the endpoint because it is the more sensitive organ to androgenic stimulation. Area under the curve (AUC) was calculated by the trapezoidal rule.
Each data point represents the mean (n=5) and standard error of the mean (SEM) prostate weight for each time period. […] In FIG. 8, the data for 1.2 mg dose groups are shown together with historical data for testosterone undecanoate in aqueous suspension and testosterone enanthate in sesame oil as standards. Both testosterone undecanoate and testosterone enanthate are commercially available.

[3] = single subcutaneous injection of 0.6 mg in aqueous suspending vehicle
[4] = single subcutaneous injection of 1.2 mg in aqueous suspending vehicle

C[C@]12CCC(=O)C=C1CC[C@@H]1[C@@H]2CC[C@@]2(C)[C@H]1CC[C@]2(C)O [CDB-110B, methyltestosterone, reference compound]
Biological activity Potency Ratio [1]: 1.00 (assigned)

CCCCCCC(=O)O[C@H]1CC[C@H]2[C@@H]3CCC4=CC(=O)CC[C@]4(C)[C@H]3CC[C@]12C [CDB-112, testosterone enanthate, reference compound]
AUC of ventral prostate weight (duration of androgenic activity), standards [2]: 760 mg·week

CCCCCCCCCCC(=O)O[C@H]1CC[C@H]2[C@@H]3CCC4=CC(=O)CC[C@]4(C)[C@H]3CC[C@]12C [CDB-3122E, testosterone undecanoate, reference compound]
AUC of ventral prostate weight (duration of androgenic activity), standards [2]: 494 mg·week

CCCCCCOC(=O)O[C@H]1CC[C@H]2[C@H]3[C@H]([C@@H](C)C[C@]12C)[C@H]1CCC(=O)C=C1C[C@H]3C [CDB-4731, 17β-Hexyloxycarbonyloxy-7α,11β-dimethylestr-4-en-3-one]
Androgenic activity Potency Ratio ([1]; oral, daily for 7 days in 10% ethanol/sesame oil, CDB 110 (methyltestosterone) = 1.000 assigned, FIG. 5, ranges did not pass all significance tests): 1.18-3.27
Androgenic activity Potency Ratio ([1]; oral, daily for 7 days in 10% ethanol/sesame oil, CDB 110 (methyltestosterone) = 1.000 assigned, FIG. 5, ranges did not pass all significance tests, listed as 4731): 1.18-3.27^1,2
Androgenic activity Potency Ratio ([1]; subcutaneous injection, daily for 7 days, CBD-111 (testosterone) = 1.000 assigned, FIG. 6, footnote 2 values did not pass all significance tests): 32
Androgenic activity Potency Ratio ([1]; subcutaneous injection, daily for 7 days, CBD-111 (testosterone) = 1.000 assigned, FIG. 6, footnote 2 values did not pass all significance tests, listed as 4731): 32.0^1,2

CC1C[C@@]2(C)C(=CC[C@@H]2OC(=O)OC23CC4CC(CC(C4)C2)C3)[C@H]2[C@H]1[C@H]1CCC(=O)C=C1C[C@H]2C (stereo partly drawn) [CDB-4750A, 17β-Adamantyloxycarbonyloxy-7α,11-dimethylestra-4,14-dien-3-one]
AUC of ventral prostate weight (duration of androgenic activity) [2, 3]: 326 mg·week
AUC of ventral prostate weight (duration of androgenic activity) [2, 4]: 759 mg·week

CCCCCCCCCCCCOC(=O)OC1CC[C@H]2[C@@H]3CCC4=CC(=O)CC[C@@H]4[C@H]3[C@@H](C)C[C@]12C (stereo partly drawn) [CDB-4754, 11β-Methyl-17-dodecyloxycarbonyloxy estr-4-en-3-one]
AUC of ventral prostate weight (duration of androgenic activity) [2, 3]: 564 mg·week
AUC of ventral prostate weight (duration of androgenic activity) [2, 4]: 974 mg·week

CCCCCCCCCC(=O)OC1CCC2C3C(C)CC4=CC(=O)CCC4C3C(C)CC12C (stereo not shown) [CDB-4756, dimethandrolone decanoate, reference compound]
Biological activity Potency Ratio [1]: 2.13-7.56

CCCCCCCCCCOC(=O)O[C@H]1CC[C@H]2[C@@H]3CCC4=CC(=O)CC[C@@H]4[C@H]3[C@@H](C)C[C@]12C [CDB-4757, 11β-Methyl-17β-decyloxycarbonyloxyestr-4-en-3-one]
Biological activity Potency Ratio [1]: 1.96
